Measured values as given in ChEMBL document CHEMBL1201862, “PubChem BioAssay data set” (2004).
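How tested: cells in 96-well plates exposed to compound for 48 hours at five concentrations. The concentration for 50% growth inhibition is given as GI50.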 Active and inactive are the calls of the source. Rule as the data show it: active = GI50 up to about 1.1 µM and inactive = higher.

Columns and labels:
Assay in all cases: inhibition of tumour cell growth, NCI panel, 48 h
[1] = tested on: UACC-62
[2] = tested on: M14
[3] = tested on: HT-29
[4] = tested on: HCC 2998
[5] = tested on: SR
[6] = tested on: NCI-H460
[7] = tested on: LOX IMVI
[8] = tested on: A498
[9] = tested on: OVCAR-3
[10] = tested on: 786-0
[11] = tested on: DU-145
[12] = tested on: HCT-116
[13] = tested on: MDA-MB-435
[14] = tested on: Malme-3M
[15] = tested on: SN12C
[16] = tested on: MOLT-4
[17] = tested on: K562
[18] = tested on: SW-620
[19] = tested on: KM12
[20] = tested on: IGROV-1
[21] = tested on: CCRF-CEM
[22] = tested on: HOP-92
[23] = tested on: Hs-578T
[24] = tested on: MCF7
[25] = tested on: RPMI-8226
[26] = tested on: UACC-257
[27] = tested on: SF-295
[28] = tested on: SK-MEL-28
[29] = tested on: NCI-H23
[30] = tested on: NCI/ADR-RES
[31] = tested on: PC-3
[32] = tested on: CAKI-1
[33] = tested on: MDA-N
[34] = tested on: NCI-H522
[35] = tested on: SK-MEL-5
[36] = tested on: EKVX
[37] = tested on: COLO 205
[38] = tested on: SNB-19
[39] = tested on: UO-31
[40] = tested on: ACHN
[41] = tested on: HOP-62
[42] = tested on: A549
[43] = tested on: RXF 393
[44] = tested on: OVCAR-5
[45] = tested on: SF-268
[46] = tested on: HCT-15
[47] = tested on: U-251
[48] = tested on: SNB-75
[49] = tested on: HL-60
[50] = tested on: SK-MEL-2
[51] = tested on: SF-539
[52] = tested on: NCI-H226
[53] = tested on: OVCAR-8
[54] = tested on: MDA-MB-231
[55] = tested on: T47D
[56] = tested on: OVCAR-4
[57] = tested on: SK-OV-3
[58] = tested on: TK-10

O=c1[nH]c(=O)n(CCOc2ccccc2)cc1Nc1ccccc1
GI50 [1]: > 100 µM (inactive)
GI50 [2]: > 100 µM (inactive)
GI50 [3]: > 100 µM (inactive)
GI50 [4]: > 100 µM (inactive)
GI50 [5]: > 100 µM (inactive)
GI50 [6]: > 100 µM (inactive)
GI50 [7]: > 100 µM (inactive)
GI50 [8]: > 100 µM (inactive)
GI50 [9]: > 100 µM (inactive)
GI50 [10]: 61.2 µM (inactive)
GI50 [11]: > 100 µM (inactive)
GI50 [12]: > 100 µM (inactive)
GI50 [13]: > 100 µM (inactive)
GI50 [14]: > 100 µM (inactive)
GI50 [15]: > 100 µM (inactive)
GI50 [16]: > 100 µM (inactive)
GI50 [17]: > 100 µM (inactive)
GI50 [18]: > 100 µM (inactive)
GI50 [19]: > 100 µM (inactive)
GI50 [20]: > 100 µM (inactive)
GI50 [21]: > 100 µM (inactive)
GI50 [22]: 6.32 µM (inactive)
GI50 [23]: 52.5 µM (inactive)
GI50 [24]: > 100 µM (inactive)
GI50 [25]: > 100 µM (inactive)
GI50 [26]: > 100 µM (inactive)
GI50 [27]: 41.8 µM (inactive)
GI50 [28]: > 100 µM (inactive)
GI50 [29]: > 100 µM (inactive)
GI50 [30]: > 100 µM (inactive)
GI50 [31]: > 100 µM (inactive)
GI50 [32]: > 100 µM (inactive)
GI50 [33]: > 100 µM (inactive)
GI50 [34]: 6.11 µM (inactive)
GI50 [35]: > 100 µM (inactive)
GI50 [36]: > 100 µM (inactive)
GI50 [37]: > 100 µM (inactive)
GI50 [38]: > 100 µM (inactive)
GI50 [39]: > 100 µM (inactive)
GI50 [40]: 92.7 µM (inactive)
GI50 [41]: 22.3 µM (inactive)
GI50 [42]: > 100 µM (inactive)
GI50 [43]: 37.3 µM (inactive)
GI50 [44]: > 100 µM (inactive)
GI50 [45]: 43.3 µM (inactive)
GI50 [46]: > 100 µM
GI50 [47]: > 100 µM (inactive)

COc1cc2c(c(O)c1OC)C(=O)C(Cc1ccc(O)cc1)CO2 (stereo unspecified)
GI50 [1]: 32.4 µM (inactive)
GI50 [48]: 18.4 µM (inactive)
GI50 [2]: 23.1 µM (inactive)
GI50 [3]: 75.7 µM (inactive)
GI50 [49]: 29.2 µM (inactive)
GI50 [5]: 4.67 µM (inactive)
GI50 [6]: 32.7 µM (inactive)
GI50 [7]: 34.1 µM (inactive)
GI50 [9]: 9.4 µM (inactive)
GI50 [10]: 32.9 µM (inactive)
GI50 [50]: 30.8 µM (inactive)
GI50 [11]: 39.8 µM (inactive)
GI50 [12]: 25.3 µM (inactive)
GI50 [13]: 2.36 µM (inactive)
GI50 [14]: 19.9 µM (inactive)
GI50 [15]: 36.3 µM (inactive)
GI50 [16]: 35.2 µM (inactive)
GI50 [17]: 13.1 µM (inactive)
GI50 [18]: 30.1 µM (inactive)
GI50 [19]: 23.4 µM (inactive)
GI50 [20]: 35.3 µM (inactive)
GI50 [21]: 24.5 µM (inactive)
GI50 [22]: 30.3 µM (inactive)
GI50 [51]: 16.1 µM (inactive)
GI50 [23]: 14.4 µM (inactive)
GI50 [52]: 37.9 µM (inactive)
GI50 [24]: 2.33 µM (inactive)
GI50 [53]: 38.2 µM (inactive)
GI50 [54]: 22.9 µM (inactive)
GI50 [25]: 16.6 µM (inactive)
GI50 [26]: 54.2 µM (inactive)
GI50 [27]: 5.46 µM (inactive)
GI50 [28]: 46.8 µM (inactive)
GI50 [29]: 29 µM (inactive)
GI50 [30]: 10.5 µM (inactive)
GI50 [31]: 33.2 µM (inactive)
GI50 [32]: 23 µM (inactive)
GI50 [55]: 29 µM (inactive)
GI50 [34]: 3.27 µM (inactive)
GI50 [35]: 26.5 µM (inactive)
GI50 [56]: 44.7 µM (inactive)
GI50 [37]: 73.6 µM (inactive)
GI50 [38]: 20.3 µM (inactive)
GI50 [39]: 40.6 µM (inactive)
GI50 [57]: 18.4 µM (inactive)
GI50 [40]: 42.5 µM (inactive)
GI50 [41]: 27.2 µM (inactive)
GI50 [42]: 23.8 µM (inactive)
GI50 [43]: 13 µM (inactive)
GI50 [58]: > 100 µM (inactive)
GI50 [44]: 48.3 µM (inactive)
GI50 [45]: 32.4 µM (inactive)
GI50 [46]: 11.2 µM
GI50 [47]: 29.5 µM (inactive)
